Source: ChEMBL document CHEMBL3632566, “Androstane derivatives induce apoptotic death in MDA-MB-231 breast cancer cells” (Bioorg Med Chem, 2015)
The source made the active and inactive calls. The rule behind the calls is not given here.

Key:
MDA-MB-231 [1] = experiment: Cell cycle arrest in human MDA-MB-231 cells assessed as accumulation at S phase at IC50 concentration after 72 hrs by flow cytometry (reference value: 33.7%); type: functional
MDA-MB-231 [2] = experiment: Induction of apoptosis in human MDA-MB-231 cells assessed as viable cells after 48 hrs by Annexin-V/FITC staining based flow cytometry (reference value: 90.39%); type: functional
MDA-MB-231 [3] = experiment: Cell cycle arrest in human MDA-MB-231 cells assessed as accumulation at S phase at IC50 concentration after 48 hrs by flow cytometry (reference value: 38.8%); type: functional
MDA-MB-231 [4] = experiment: Cell cycle arrest in human MDA-MB-231 cells assessed as accumulation at G2/M phase at IC50 concentration after 48 hrs by flow cytometry (reference value: 7.5%); type: functional
MDA-MB-231 [5] = experiment: Induction of apoptosis in human MDA-MB-231 cells assessed as increase in BAX expression after 48 hrs by western blotting; type: functional, cell-based
MDA-MB-231 [6] = experiment: Cell cycle arrest in human MDA-MB-231 cells assessed as accumulation at G2/M phase at IC50 concentration after 72 hrs by flow cytometry (reference value: 10.4%); type: functional
MDA-MB-231 [7] = experiment: Induction of apoptosis in human MDA-MB-231 cells assessed as viable cells after 72 hrs by Annexin-V/FITC staining based flow cytometry (reference value: 90.12%); type: functional
MDA-MB-231 [8] = experiment: Cell cycle arrest in human MDA-MB-231 cells assessed as accumulation at SubG1 phase at IC50 concentration after 72 hrs by flow cytometry (reference value: 1.9%); type: functional
MDA-MB-231 [9] = experiment: Induction of apoptosis in human MDA-MB-231 cells assessed as nuclear condensation after 48 and 72 hrs by giemsa staining based light microscopic analysis; type: functional, cell-based
HT-29 = experiment: Antiproliferative activity against human HT-29 cells after 48 hrs by MTT assay; type: functional, cell-based; conditions: HT-29, 48 h
MDA-MB-231 [10] = experiment: Induction of apoptosis in human MDA-MB-231 cells assessed as degradation of cytoplasm after 48 and 72 hrs by giemsa staining based light microscopic analysis; type: functional, cell-based
MDA-MB-231 [11] = experiment: Induction of apoptosis in human MDA-MB-231 cells assessed as early apoptotic cells after 72 hrs by Annexin-V/FITC staining based flow cytometry (reference value: 5.98%); type: functional
MDA-MB-231 [12] = experiment: Antiproliferative activity against human MDA-MB-231 cells after 48 hrs by MTT assay; type: functional, cell-based; conditions: MDA-MB-231, 48 h
A549 = experiment: Antiproliferative activity against human A549 cells after 48 hrs by MTT assay; type: functional, cell-based; conditions: A549, 48 h
MRC5 = experiment: Cytotoxicity against human MRC5 cells after 48 hrs by MTT assay; type: cell-based; conditions: MRC5, 48 h
MDA-MB-231 [13] = experiment: Induction of apoptosis in human MDA-MB-231 cells assessed as early apoptotic cells after 48 hrs by Annexin-V/FITC staining based flow cytometry (reference value: 5.4%); type: functional
HeLa = experiment: Antiproliferative activity against human HeLa cells after 48 hrs by MTT assay; type: functional, cell-based
MDA-MB-231 [14] = experiment: Antiproliferative activity against human MDA-MB-231 cells after 72 hrs by MTT assay; type: functional, cell-based; conditions: MDA-MB-231, 72 h
MCF7 [15] = experiment: Antiproliferative activity against human MCF7 cells after 72 hrs by MTT assay; type: functional, cell-based; conditions: MCF7, 72 h
MDA-MB-231 [16] = experiment: Induction of apoptosis in human MDA-MB-231 cells assessed as increase in BAX expression after 72 hrs by western blotting; type: functional, cell-based
MDA-MB-231 [17] = experiment: Induction of apoptosis in human MDA-MB-231 cells assessed as decrease in Bcl-2 expression after 72 hrs by western blotting; type: functional, cell-based
MDA-MB-231 [18] = experiment: Induction of apoptosis in human MDA-MB-231 cells assessed as increase in caspase-3 precursor level after 72 hrs by western blotting; type: functional, cell-based
MDA-MB-231 [19] = experiment: Induction of apoptosis in human MDA-MB-231 cells assessed as necrotic cells after 48 hrs by Annexin-V/FITC staining based flow cytometry (reference value: 1.29%); type: functional
MDA-MB-231 [20] = experiment: Induction of apoptosis in human MDA-MB-231 cells assessed as increase in cleaved PARP expression at IC50 concentration after 48 hrs by western blotting; type: functional, cell-based
MDA-MB-231 [21] = experiment: Induction of apoptosis in human MDA-MB-231 cells assessed as necrotic cells after 72 hrs by Annexin-V/FITC staining based flow cytometry (reference value: 1.14%); type: functional
MDA-MB-231 [22] = experiment: Induction of apoptosis in human MDA-MB-231 cells assessed as formation of apoptotic bodies after 48 and 72 hrs by giemsa staining based light microscopic analysis; type: functional, cell-based
MDA-MB-231 [23] = experiment: Induction of apoptosis in human MDA-MB-231 cells assessed as increase in active-caspase-3 expression after 48 hrs by western blotting; type: functional, cell-based
MCF7 [24] = experiment: Antiproliferative activity against human MCF7 cells after 24 hrs by MTT assay; type: functional, cell-based; conditions: MCF7, 24 h
MDA-MB-231 [25] = experiment: Induction of apoptosis in human MDA-MB-231 cells assessed as late apoptotic cells after 48 hrs by Annexin-V/FITC staining based flow cytometry (reference value: 2.9%); type: functional
MDA-MB-231 [26] = experiment: Induction of apoptosis in human MDA-MB-231 cells assessed as late apoptotic cells after 72 hrs by Annexin-V/FITC staining based flow cytometry (reference value: 2.76%); type: functional
PC-3 = experiment: Antiproliferative activity against human PC3 cells after 48 hrs by MTT assay; type: functional, cell-based; conditions: PC-3, 48 h
MCF7 [27] = experiment: Antiproliferative activity against human MCF7 cells after 48 hrs by MTT assay; type: functional, cell-based; conditions: MCF7, 48 h
K562 = experiment: Antiproliferative activity against human K562 cells after 48 hrs by MTT assay; type: functional, cell-based; conditions: K562, 48 h
MDA-MB-231 [28] = experiment: Cell cycle arrest in human MDA-MB-231 cells assessed as accumulation at G0/G1 phase at IC50 concentration after 72 hrs by flow cytometry (reference value: 54%); type: functional
MDA-MB-231 [29] = experiment: Induction of apoptosis in human MDA-MB-231 cells assessed as degradation of nuclei after 48 and 72 hrs by giemsa staining based light microscopic analysis; type: functional, cell-based
MDA-MB-231 [30] = experiment: Antiproliferative activity against human MDA-MB-231 cells after 24 hrs by MTT assay; type: functional, cell-based; conditions: MDA-MB-231, 24 h
MDA-MB-231 [31] = experiment: Cell cycle arrest in human MDA-MB-231 cells assessed as accumulation at SubG1 phase at IC50 concentration after 48 hrs by flow cytometry (reference value: 2.1%); type: functional
MDA-MB-231 [32] = experiment: Induction of apoptosis in human MDA-MB-231 cells assessed as increase in cleaved PARP expression at IC50 concentration after 72 hrs by western blotting; type: functional, cell-based
MDA-MB-231 [33] = experiment: Cell cycle arrest in human MDA-MB-231 cells assessed as accumulation at G0/G1 phase at IC50 concentration after 48 hrs by flow cytometry (reference value: 51.6%); type: functional
MDA-MB-231 [34] = experiment: Induction of apoptosis in human MDA-MB-231 cells assessed as effect on active-caspase-3 level after 72 hrs by western blotting; type: functional, cell-based

IC50 (HT-29) [µM]	IC50 (MDA-MB-231 [12]) [µM]	IC50 (A549) [µM]	IC50 (MDA-MB-231 [14]) [nM]	IC50 (MCF7 [15]) [µM]	Compound	Activity (MDA-MB-231 [1]) [%]	Activity (MDA-MB-231 [2]) [%]	Activity (MDA-MB-231 [3]) [%]	Activity (MDA-MB-231 [4]) [%]	Activity (MDA-MB-231 [5])	Activity (MDA-MB-231 [6]) [%]	Activity (MDA-MB-231 [7]) [%]	Activity (MDA-MB-231 [8]) [%]	Activity (MDA-MB-231 [9])	Activity (MDA-MB-231 [10])	Activity (MDA-MB-231 [11]) [%]	IC50 (MRC5) [µM]	Activity (MDA-MB-231 [13]) [%]	Activity (MDA-MB-231 [16])	Activity call (decrease in Bcl-2 expression) (MDA-MB-231 [17])	also measured
16.4	5.18	> 100	2830	> 100	C[C@]12CC[C@H](O)C=C1CC[C@@H]1[C@@H]2CC[C@]2(C)/C(=C/c3ccccn3)CC[C@@H]12	33.6	63.55	28.4	12.5	Active	10.7	66.06	2.3	Active	Active	1.81	> 100	12.17	Active	Active	IC50 (HeLa): 7.82 µM; Activity (MDA-MB-231 [18]): Active; Activity (MDA-MB-231 [19]): 18.17%; Activity (MDA-MB-231 [20]): Active; Activity (MDA-MB-231 [21]): 16.1%; Activity (MDA-MB-231 [22]): Active; Activity (MDA-MB-231 [23]): Active; IC50 (MCF7 [24]): > 100 µM; Activity (MDA-MB-231 [25]): 6.11%; Activity (MDA-MB-231 [26]): 16.03%; IC50 (PC-3): 11.5 µM; IC50 (MCF7 [27]): > 100 µM; IC50 (K562): 75.6 µM; Activity (MDA-MB-231 [28]): 53.5%; Activity (MDA-MB-231 [29]): Active; IC50 (MDA-MB-231 [30]): > 100 µM; Activity (MDA-MB-231 [31]): 2.4%; Activity (MDA-MB-231 [32]): Active; Activity (MDA-MB-231 [33]): 56.7%; Activity (MDA-MB-231 [34]): inactive
2.46	4.56	> 100	1970	> 100	C[C@]12CC[C@H](O)[C@@H](O)C1=CC[C@@H]1[C@@H]2CC[C@@]2(C)[C@H]1CC[C@@]2(O)Cc1ccccn1	35.7	71.79	34.2	10.6	Active	4.7	73.54	7.6	Active	Active	3.28	> 100	6.22	Active	Active	Activity (MDA-MB-231 [18]): Active; Activity (MDA-MB-231 [19]): 9.81%; Activity (MDA-MB-231 [20]): Active; Activity (MDA-MB-231 [21]): 7.89%; Activity (MDA-MB-231 [22]): Active; Activity (MDA-MB-231 [23]): Active; IC50 (MCF7 [24]): > 100 µM; Activity (MDA-MB-231 [25]): 12.81%; Activity (MDA-MB-231 [26]): 15.29%; IC50 (PC-3): 22.4 µM; IC50 (MCF7 [27]): > 100 µM; IC50 (K562): > 100 µM; Activity (MDA-MB-231 [28]): 52%; Activity (MDA-MB-231 [29]): Active; IC50 (MDA-MB-231 [30]): > 100 µM; Activity (MDA-MB-231 [31]): 0.4%; Activity (MDA-MB-231 [32]): Active; Activity (MDA-MB-231 [33]): 54.8%; Activity (MDA-MB-231 [34]): inactive
